The source of these data is US4443436A, “C-20-Modified macrolide derivatives of the macrolide antibiotics tylosin, desmycosin, macrocin, and lactenocin” (Eli Lilly and Company, priority 1982, dated 1984).

In brackets after ≈: the same amount, converted by molar mass. Like-named read-outs stand apart in the source and are kept apart here.

Assay [1] has as its system Streptococcus pyogenes C203. Nature of the assay: In vivo protection of mice experimentally infected with S. pyogenes C203. To be noted: mice, doses given 1 and 4 hours post-infection; for ED50: Streptococcus pyogenes. The procedure: The C-20 modified derivatives of this invention have shown in vivo antimicrobial activity against experimentally-induced infections in laboratory animals. When two doses of test compound were administered to mice experimentally infected with S. pyogenes C203, the activity observed was measured as an ED50 value [effective dose in mg/kg to protect 50% of the test animals: see Warren Wick, et al., J. Bacteriol. 81, 233-235 (1961)].

In assay [2] the test system is Pasteurella multocida 60A. Nature of the assay: MIC, broth-dilution microtiter test, Pasteurella multocida 60A. It is filed as cell-based. The text has this: (§1) The MIC's in Table X were obtained using conventional broth-dilution microtiter tests.
Assay [3] relates to Staphylococcus aureus V41. Nature of the assay: MIC, standard agar-dilution assay, Staphylococcus aureus V41. It is filed as cell-based.
Assay [4] concerns Mycoplasma hyopneumoniae. The assay can be described thus: MIC, broth-dilution microtiter test, Mycoplasma hyopneumoniae. It is filed as cell-based.
Text: as §1

Assay [5] has as its system Haemophilus influenzae R252. The assay can be described thus: MIC, standard agar-dilution assay, Haemophilus influenzae R252. Format: cell-based.
The test system of assay [6] is Staphylococcus aureus X400. Nature of the assay: MIC, standard agar-dilution assay, Staphylococcus aureus X400. Format: cell-based.
The test system of assay [7] is Streptococcus Group D X66. Nature of the assay: MIC, standard agar-dilution assay, Streptococcus Group D X66. Format: cell-based.
Assay [8] has as its system Staphylococcus aureus X1.1. The assay can be described thus: MIC, standard agar-dilution assay, Staphylococcus aureus X1.1. Format: cell-based.
In assay [9] the test system is Mycoplasma synoviae. Nature of the assay: MIC, broth-dilution microtiter test, Mycoplasma synoviae. It is filed as cell-based. To be noted: Mycoplasmopsis synoviae.
Text: as §1

Assay [10] concerns Streptococcus pyogenes C203. The assay can be described thus: MIC, standard agar-dilution assay, Streptococcus pyogenes C203. It is filed as cell-based.
Assay [11] concerns Streptococcus pneumoniae Park I. Nature of the assay: microbe, parasite or virus in culture. Format: cell-based.
For assay [12], the system named is Staphylococcus epidermidis EPI2. Nature of the assay: MIC, standard agar-dilution assay, Staphylococcus epidermidis EPI2. Format: cell-based. To be noted: Staphylococcus epidermidis, EPI2.
Assay [13] has as its system Staphylococcus epidermidis EPI1. The assay can be described thus: MIC, standard agar-dilution assay, Staphylococcus epidermidis EPI1. It is filed as cell-based.
Assay [14] has as its system Pasteurella multocida 17E. Nature of the assay: MIC, broth-dilution microtiter test, Pasteurella multocida 17E. It is filed as cell-based.
Text: as §1

Assay [15] deals with Pasteurella hemolytica 22C. Nature of the assay: MIC, broth-dilution microtiter test, Pasteurella hemolytica 22C. The following applies: Pasteurella hemolytica 22C, broth-dilution microtiter. It is filed as cell-based.
Text: as §1

Assay [16] concerns Staphylococcus aureus S13E. Nature of the assay: MIC, standard agar-dilution assay, Staphylococcus aureus S13E. Format: cell-based.
Assay [17] concerns Mycoplasma hyorhinis. The assay can be described thus: MIC, broth-dilution microtiter test, Mycoplasma hyorhinis. It is filed as cell-based.
Text: as §1

Assay [18] concerns Staphylococcus aureus. Nature of the assay: MIC, broth-dilution microtiter test, Staphylococcus aureus. Format: cell-based.
Text: as §1

In assay [19] the test system is Streptococcus bovis 80. Nature of the assay: MIC, broth-dilution microtiter test, Streptococcus bovis 80. Format: cell-based.
Text: as §1

For assay [20], the system named is Mycoplasma gallisepticum. The assay can be described thus: MIC, broth-dilution microtiter test, Mycoplasma gallisepticum. It is filed as cell-based.
Text: as §1

For assay [21], the system named is Streptococcus Group 9960. The assay can be described thus: MIC, standard agar-dilution assay, Streptococcus Group 9960. It is filed as cell-based. To be noted: Streptococcus Group 9960, agar dilution.
For assay [22], the system named is Haemophilus influenzae Holt. Nature of the assay: MIC, standard agar-dilution assay, Haemophilus influenzae Holt. Format: cell-based. The following applies: Haemophilus influenzae Holt, ampicillin-sensitive strain.
The mark [23] stands for this setting: C203, oral, read-out: ED50, Oral.
Where [24] appears, read: Staphylococcus epidermidis, EPI1.

The term ED50 denotes the dose at which the effect has come halfway, by size or by number of responders. With `CCC1OC(=O)CC(O)C(C)C(OC2OC(C)C(O)C(N(C)C)C2O)C(CCOc2cccc(N(C)C)c2)CC(C)C(=O)C=CC(C)=CC1COC1OC(C)C(O)C(OC)C1OC` (stereo not shown) [Compound 39, 20-DH-20-O-[m-(N,N-Dimethylamino)phenyl]desmycosin], the ED50 was 6.7 mg/kg in assay [1] (C203, sc, subcutaneous, read-out: ED50, Subcutaneous) and 19 mg/kg in assay [1] (setting [23]). The MIC in [2] (Pasteurella multocida, 60A) was 12.5 µg/mL (≈ 14 µM); in assay [3] (Staphylococcus aureus, V41), 0.5 µg/mL (≈ 0.56 µM); in [4] (Mesomycoplasma hyopneumoniae), 6.25 µg/mL (≈ 7 µM); in assay [5] (Haemophilus influenzae, R252), 16 µg/mL (≈ 17.9 µM); in assay [6] (Staphylococcus aureus, X400), 0.5 µg/mL (≈ 0.56 µM); in assay [7] it was 4 µg/mL (≈ 4.48 µM). Besides, the MIC in [8] (Staphylococcus aureus, X1.1) was 0.5 µg/mL (≈ 0.56 µM); in assay [9], 1.56 µg/mL (≈ 1.75 µM); in [10] (Streptococcus pyogenes, C203), 0.25 µg/mL (≈ 0.28 µM); in assay [11] (Streptococcus pneumoniae), 1 µg/mL (≈ 1.12 µM); in assay [12], 0.25 µg/mL (≈ 0.28 µM); in assay [13] (setting [24]), 0.5 µg/mL (≈ 0.56 µM). Besides, the MIC in [14] (Pasteurella multocida 17E, bovine isolate, broth-dilution microtiter, read-out: MIC) is 25 µg/mL (≈ 28 µM); in [15] (read-out: MIC), > 50 µg/mL; in assay [16] (Staphylococcus aureus, S13E), 0.5 µg/mL (≈ 0.56 µM); in assay [17] (Mycoplasma hyorhinis, broth-dilution microtiter, read-out: MIC) it was 25 µg/mL (≈ 28 µM); in [18], 6.25 µg/mL (≈ 7 µM); in [19] (Streptococcus equinus, 80), 1.56 µg/mL (≈ 1.75 µM). Also, the MIC in assay [20] (Mycoplasmoides gallisepticum) was 1.56 µg/mL (≈ 1.75 µM); in assay [21] (GROUP9960, read-out: MIC), 8 µg/mL (≈ 8.96 µM).

As to `CCC1OC(=O)CC(O)C(C)C(OC2OC(C)C(OC3CC(C)(O)C(O)C(C)O3)C(N(C)C)C2O)C(C)CC(C)C(=O)C=CC(C)=CC1COC1OC(C)C(O)C(O)C1OC` (stereo not shown) [Compound 54, 20-Deformylmacrocin], the ED50 in [1] (setting [23]) stood at 31 mg/kg. The MIC in assay [2] (Pasteurella multocida 60A, avian isolate, broth-dilution microtiter, read-out: MIC) is > 50 µg/mL; in [3] (Staphylococcus aureus, V41) it was 1 µg/mL (≈ 1.14 µM); in assay [5] (Haemophilus influenzae R252, ampicillin-resistant strain, read-out: MIC) it was > 128 µg/mL; in assay [6] (Staphylococcus aureus, X400), 2 µg/mL (≈ 2.29 µM); in assay [7] (Streptococcus Group D X66, agar dilution, read-out: MIC), 128 µg/mL (≈ 146 µM); in assay [8] (Staphylococcus aureus, X1.1), 2 µg/mL (≈ 2.29 µM). In addition, the MIC in assay [9] was 1.56 µg/mL (≈ 1.78 µM); in assay [10] (Streptococcus pyogenes, C203), 2 µg/mL (≈ 2.29 µM); in assay [11] (Streptococcus pneumoniae Park I, agar dilution, read-out: MIC), 64 µg/mL (≈ 73.2 µM); in [12] it was 2 µg/mL (≈ 2.29 µM); in assay [13] (setting [24]), 2 µg/mL (≈ 2.29 µM); in assay [14] (Pasteurella multocida, 17E), > 50 µg/mL. Also, the MIC in assay [15] (read-out: MIC) is > 50 µg/mL; in [22] (read-out: MIC) it was > 128 µg/mL; in assay [16] (Staphylococcus aureus, S13E), 2 µg/mL (≈ 2.29 µM); in assay [17] (Mycoplasma), 25 µg/mL (≈ 28.6 µM); in assay [18], 3.12 µg/mL (≈ 3.57 µM); in assay [19] (Streptococcus equinus, 80), 6.25 µg/mL (≈ 7.15 µM). In addition, the MIC in assay [20] (Mycoplasmoides gallisepticum) is 0.78 µg/mL (≈ 0.892 µM); in assay [21] (GROUP9960, read-out: MIC), 28 µg/mL (≈ 32 µM).

`CCC(=O)OC1C(OC2C(CCN3C(=O)c4ccccc4C3=O)CC(C)C(=O)C=CC(C)=CC(COC3OC(C)C(O)C(OC)C3OC)C(CC)OC(=O)CC(O)C2C)OC(C)C(O)C1N(C)C` (stereo not shown) [Compound 65, 20-DH-DO-20-N-Phthalimido-2'-O-propionyldesmycosin]: the “ED50, Oral” value in [1] (oral) was 20 mg/kg × 2. The “ED50, Subcutaneous” value in [1] (subcutaneous) was determined as 1.7 mg/kg × 2. The MIC was 12.5 µg/mL (≈ 13 µM) in assay [2] (Pasteurella multocida 60A, avian isolate, broth-dilution microtiter); 0.5 µg/mL (≈ 0.521 µM) in [3] (Staphylococcus aureus V41, penicillin-resistant strain, agar dilution); 12.5 µg/mL (≈ 13 µM) in assay [4] (Mycoplasma hyopneumoniae, broth-dilution microtiter); 32 µg/mL (≈ 33.4 µM) in assay [5] (Haemophilus influenzae R252, ampicillin-resistant strain, agar dilution); 0.5 µg/mL (≈ 0.521 µM) in [6] (Staphylococcus aureus X400, methicillin-resistant strain, agar dilution); 8 µg/mL (≈ 8.34 µM) in assay [7] (Streptococcus Group D X66, agar dilution). Besides, the MIC in assay [8] (Staphylococcus aureus X1.1, agar dilution) is 0.5 µg/mL (≈ 0.521 µM); in assay [10] (Streptococcus pyogenes C203, agar dilution), 0.5 µg/mL (≈ 0.521 µM); in assay [11] (Streptococcus pneumoniae Park I, agar dilution), 1 µg/mL (≈ 1.04 µM); in assay [13] (Staphylococcus epidermidis EPI1, agar dilution), 0.25 µg/mL (≈ 0.261 µM); in assay [14] (Pasteurella multocida 17E, bovine isolate, broth-dilution microtiter) it was 25 µg/mL (≈ 26.1 µM); in assay [15], 25 µg/mL (≈ 26.1 µM). Besides, the MIC was 64 µg/mL (≈ 66.7 µM) in [22] (agar dilution); 0.5 µg/mL (≈ 0.521 µM) in assay [16] (Staphylococcus aureus S13E, agar dilution); “-- (Not active at 50 mcg/ml, the highest level tested)” in assay [17] (Mycoplasma hyorhinis, broth-dilution microtiter); 1.56 µg/mL (≈ 1.63 µM) in assay [18] (broth-dilution microtiter); 6.25 µg/mL (≈ 6.52 µM) in assay [19] (Streptococcus bovis 80, broth-dilution microtiter); < 0.05 µg/mL in assay [20] (Mycoplasma gallisepticum, broth-dilution microtiter). In addition, in assay [21], the MIC was found to be 8 µg/mL (≈ 8.34 µM).
